Source: ChEMBL document CHEMBL5214939, “Design, synthesis and biological evaluations of novel farnesoid X receptor (FXR) agonists” (Bioorg Med Chem Lett, 2022)
pEC50: −log10 of the molar value. One block for each compound: values may come before it. Activity calls are given as the source filed them. The rule behind the calls is not given here.

Experiments:
Bile acid receptor = molecular target: T1, Bile acid receptor (Homo sapiens, UniProt Q96RI1); assay: Agonist activity at FXR in HEK293T cells assessed as transcriptional activity by measuring […] by luciferase reporter assay; type: cell-based
T1 sequence (Q96RI1 whole entry): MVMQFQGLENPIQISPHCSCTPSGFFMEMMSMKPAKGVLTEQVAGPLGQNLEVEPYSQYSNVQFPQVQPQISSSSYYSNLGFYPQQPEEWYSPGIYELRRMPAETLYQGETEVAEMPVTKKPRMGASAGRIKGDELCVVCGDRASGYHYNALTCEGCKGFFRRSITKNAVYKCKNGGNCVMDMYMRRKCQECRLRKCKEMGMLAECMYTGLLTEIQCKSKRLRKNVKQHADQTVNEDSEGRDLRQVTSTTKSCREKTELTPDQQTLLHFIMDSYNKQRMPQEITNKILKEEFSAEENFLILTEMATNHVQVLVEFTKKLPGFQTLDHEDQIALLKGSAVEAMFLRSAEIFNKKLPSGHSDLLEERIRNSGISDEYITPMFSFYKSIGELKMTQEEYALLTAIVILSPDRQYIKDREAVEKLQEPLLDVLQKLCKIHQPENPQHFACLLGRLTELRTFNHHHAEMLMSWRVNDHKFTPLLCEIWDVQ

Mus musculus [1] = species: Mus musculus; assay: Protection against Con-A induced autoimmune hepatitis mouse model assessed as reduction in AST level; type: functional, organism-based
Mus musculus [2] = species: Mus musculus; assay: Protection against Con-A induced autoimmune hepatitis mouse model assessed as reduction in ALT level; type: functional, organism-based
[3] = AUC (0 to t) in mouse at 5 mg/kg, iv; type: ADME, organism-based; parameters: dose 5 mg/kg, route iv; conditions: in vivo
[4] = AUCinfinity in mouse at 5 mg/kg, iv; type: ADME, organism-based; parameters: time infinity, dose 5 mg/kg, route iv; conditions: in vivo
[5] = AUC (0 to t) in mouse at 100 mg/kg, po; type: ADME, organism-based; parameters: dose 100 mg/kg, route po; conditions: in vivo
[6] = AUCinfinity in mouse at 100 mg/kg, po; type: ADME, organism-based; parameters: time infinity, dose 100 mg/kg, route po; conditions: in vivo
[7] = Clearance in mouse at 100 mg/kg, po or 5 mg/kg, iv; type: ADME, organism-based; conditions: in vivo
[8] = Half life in mouse at 100 mg/kg, po; type: ADME, organism-based; conditions: in vivo
[9] = Tmax in mouse at 100 mg/kg, po; type: ADME, organism-based; conditions: in vivo
[10] = Cmax in mouse at 100 mg/kg, po; type: ADME, organism-based; parameters: dose 100 mg/kg, route po; conditions: in vivo
[11] = Oral bioavailability in mouse at 100 mg/kg; type: ADME, organism-based; conditions: in vivo
[12] = AUC (0 to t) in mouse at 20 mg/kg, po; type: ADME, organism-based; parameters: dose 20 mg/kg, route po; conditions: in vivo
[13] = AUCinfinity in mouse at 20 mg/kg, po; type: ADME, organism-based; parameters: time infinity, dose 20 mg/kg, route po; conditions: in vivo
[14] = Clearance in mouse at 20 mg/kg, po or 5 mg/kg, iv; type: ADME, organism-based; conditions: in vivo
[15] = Half life in mouse at 20 mg/kg, po; type: ADME, organism-based; conditions: in vivo
[16] = Tmax in mouse at 20 mg/kg, po; type: ADME, organism-based; conditions: in vivo
[17] = Cmax in mouse at 20 mg/kg, po; type: ADME, organism-based; parameters: dose 20 mg/kg, route po; conditions: in vivo
[18] = Oral bioavailability in mouse at 20 mg/kg; type: ADME, organism-based; conditions: in vivo

pEC50 (Bile acid receptor): 6.57
AUC(0-t) [3]: 5.76 µg·h/mL
AUC [4]: 5.822 µg·h/mL
AUC(0-t) [5]: 5.37 µg·h/mL
AUC [6]: 5.415 µg·h/mL
CL [7]: 0.86 L/h/kg
half-life [8]: 2.6 h
Tmax [9]: 0.5 h
Cmax [10]: 40.2 µg/mL
F [11]: 73%
SMILES: CN(Cc1cccc(C(=O)O)c1)c1ccc(OCc2c(-c3c(Cl)cccc3Cl)nsc2C2CC2)nc1C(F)(F)F
Activity (Mus musculus [1]): Active
Activity (Mus musculus [2]): Active

pEC50 (Bile acid receptor): 5.67
SMILES: CCN(Cc1ccc(C(=O)O)cc1)c1ccc(OCc2c(-c3c(Cl)cccc3Cl)nsc2C(C)C)nc1C(F)(F)F

pEC50 (Bile acid receptor): < 4.52
SMILES: CN(Cc1ccc(C(=O)NO)cc1)c1ccc(OCc2c(-c3c(Cl)cccc3Cl)nsc2C2CC2)nc1C(F)(F)F

pEC50 (Bile acid receptor): 6.24
SMILES: CC(C)c1snc(-c2c(Cl)cccc2Cl)c1COc1ccc(/C=C/c2cccc(C(=O)O)c2)c(Cl)c1

pEC50 (Bile acid receptor): 6.39
SMILES: CN(Cc1ccc(C(=O)O)cc1)c1ccc(OCc2c(-c3c(Cl)cccc3Cl)nsc2C2CC2)cc1C(F)(F)F
Activity (Mus musculus [2]): Active

pEC50 (Bile acid receptor): 6.51
SMILES: CN(Cc1ccc(C(=O)O)cc1)c1ccc(OCc2c(-c3c(Cl)cccc3Cl)nsc2C2CC2)nc1C(F)(F)F
Activity (Mus musculus [2]): Active

AUC(0-t) [3]: 3.14 µg·h/mL
AUC [4]: 3.162 µg·h/mL
AUC(0-t) [12]: 85.2 µg·h/mL
AUC [13]: 85.283 µg·h/mL
CL [14]: 1.58 L/h/kg
t1/2 [15]: 1.53 h
Tmax [16]: 0.5 h
Cmax [17]: 4.787 µg/mL
F [18]: 42.81%
SMILES: CC(C)c1onc(-c2c(Cl)cccc2Cl)c1COc1ccc(/C=C/c2cccc(C(=O)O)c2)c(Cl)c1

pEC50 (Bile acid receptor): 6.46
SMILES: CC(C)c1snc(-c2c(Cl)cccc2Cl)c1COc1ccc(N(C)Cc2ccc(C(=O)O)cc2)c(C(F)(F)F)n1
Activity (Mus musculus [1]): Active
Activity (Mus musculus [2]): Active

pEC50 (Bile acid receptor): 5.96
SMILES: CN(Cc1cccc(C(=O)NO)c1)c1ccc(OCc2c(-c3c(Cl)cccc3Cl)nsc2C2CC2)nc1C(F)(F)F

pEC50 (Bile acid receptor): < 4.52
SMILES: CC(C)c1snc(-c2c(Cl)cccc2Cl)c1COc1ccc(N(C)CC2CCCC(C(=O)O)C2)c(C(F)(F)F)n1 (centres undefined)

pEC50 (Bile acid receptor): 6.29
SMILES: CC(C)c1snc(-c2c(Cl)cccc2Cl)c1COc1ccc(N(C)Cc2ccc(C(=O)O)s2)c(C(F)(F)F)n1
